According to paper PMC8398255, “Synthesis of 3,5-Bis(trifluoromethyl)phenyl-Substituted Pyrazole Derivatives as Potent Growth Inhibitors of Drug-Resistant Bacteria” (Molecules, 2021):
In brackets after ≈: the same amount, converted by molar mass.

Columns and labels:
enterococci strains = assay: MIC against enterococci strains; format: cell-based; settings: tested enterococci strains
Procedure: (§1) Compounds were dissolved in dimethyl sulfoxide (DMSO) to achieve a starting concentration of 32 µg/mL as described by us previously. Compounds were further diluted two-fold across the 96-well honeycomb plate columns in cation adjusted Mueller Hinton broth (CAMHB), and bacterial culture was added. Plates were incubated for 18–20 h at 35 ℃ before determining the minimum concentrations at which wells had no visible turbidity to the naked eye. The MIC values were determined from at least a duplicate result obtained from three independent experiments using fresh bacterial cultures on different days.

[1] = test system: E. faecalis ATCC 51299 (Ef99); assay: MIC, microdilution (CLSI); format: cell-based; settings: Enterococcus faecalis, ATCC 51299 / VRE; Ef99, vancomycin-resistant (VRE) E. faecalis ATCC 51299; n = 3; read-out: MIC
How it was run: (§2)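 Broth microdilution uses cation-adjusted Mueller Hinton broth with two-fold compound series beginning at 32 µg/mL. Plates incubate 18–20 h at 35 ℃, then wells are scored visually for growth. Values derive from three separate experiments on different days, each at least in duplicate with fresh cultures.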

[2] = test system: S. aureus ATCC 25923 (Sa23); assay: MIC, microdilution (CLSI); format: cell-based; settings: Staphylococcus aureus, ATCC25923; Sa23, antibiotic susceptible S. aureus ATCC 25923; n = 3; read-out: MIC
How it was run: as §2

[3] = test system: S. aureus ATCC 700699 (Sa99); assay: MIC, microdilution (CLSI); format: cell-based; settings: Staphylococcus aureus, ATCC700699; Sa99, methicillin-resistant S. aureus ATCC 700699; n = 3; read-out: MIC
How it was run: as §2

[4] = test system: E. faecium ATCC 700221 (Ef21); assay: MIC, microdilution (CLSI); format: cell-based; settings: Enterococcus faecium, ATCC 700221 / VRE; Ef21, vancomycin-resistant (VRE) E. faecium ATCC 700221; n = 3; read-out: MIC
How it was run: as §2

[5] = test system: S. aureus BAA-2312 (Sa12); assay: MIC, microdilution (CLSI); format: cell-based; settings: Staphylococcus aureus, BAA2312; Sa12, methicillin-resistant S. aureus BAA-2312; n = 3; read-out: MIC
How it was run: as §2

[6] = test system: S. aureus ATCC 33592 (Sa92); assay: MIC, microdilution (CLSI); format: cell-based; settings: Staphylococcus aureus, ATCC33592; Sa92, methicillin-resistant S. aureus ATCC 33592; n = 3; read-out: MIC
How it was run: as §2

[7] = test system: S. aureus ATCC 33591 (Sa91); assay: MIC, microdilution (CLSI); format: cell-based; settings: Staphylococcus aureus, ATCC33591; Sa91, methicillin-resistant S. aureus ATCC 33591; n = 3; read-out: MIC
How it was run: as §2

[8] = test system: Bacillus subtilis ATCC 6623 (Bs); assay: MIC, microdilution (CLSI); format: cell-based; settings: ATCC6623; Bs, Bacillus subtilis ATCC 6623; n = 3; read-out: MIC
How it was run: as §2

[9] = test system: S. epidermidis ATCC 700296 (Se); assay: MIC, microdilution (CLSI); format: cell-based; settings: Staphylococcus epidermidis, ATCC700296; Se, S. epidermidis ATCC 700296; n = 3; read-out: MIC
How it was run: as §2

[10] = test system: E. faecalis ATCC 29212 (Ef12); assay: MIC, microdilution (CLSI); format: cell-based; settings: Enterococcus faecalis, ATCC29212; Ef12, antibiotic susceptible E. faecalis ATCC 29212; n = 3; read-out: MIC
How it was run: as §2

S. aureus strains = assay: MIC against S. aureus strains; format: cell-based, Staphylococcus aureus
Procedure: as §1

MIC (enterococci strains): 1 µg/mL (≈ 1.62 µM)
MIC [1]: 1 µg/mL (≈ 1.62 µM)
MIC [2]: 1 µg/mL (≈ 1.62 µM)
MIC [3]: 2 µg/mL (≈ 3.23 µM)
MIC [4]: 1 µg/mL (≈ 1.62 µM)
MIC [5]: 1 µg/mL (≈ 1.62 µM)
MIC [6]: 0.5 µg/mL (≈ 0.808 µM)
MIC [7]: 0.5 µg/mL (≈ 0.808 µM)
MIC [8]: 1 µg/mL (≈ 1.62 µM)
MIC [9]: 2 µg/mL (≈ 3.23 µM)
MIC [10]: 1 µg/mL (≈ 1.62 µM)
MIC (S. aureus strains; Staphylococcus aureus, S. aureus strains, including MRSA): ≥ 0.5 µg/mL
SMILES: O=C(O)c1ccc(-n2cc(CNc3ccc(Br)c(Cl)c3)c(-c3cc(C(F)(F)F)cc(C(F)(F)F)c3)n2)cc1 [Compound 21, 4-[3-[3,5-Bis(trifluoromethyl)phenyl]-4-[(4-bromo-3-chloro-anilino)methyl]pyrazol-1-yl] benzoic acid]
times more effective than vancomycin and daptomycin (S. aureus strains; against S. aureus strains): up to 4 times
